# Assay results from paper PMC5377466 (Scientific Reports, 2014).
# Legend:
# [1] = Pharmacokinetics of oral EVL in rats without and with coadministered curcumin; format: in vivo; conditions: for AUC(0-t): male, Sprague-Dawley, rat, whole blood, po, 0.5 mg/kg, AUC0-540, area under the blood concentration-time curve from 0 to 540 min
# [2] = cited from earlier work
# CYP3A4 = CYP3A4 (Homo sapiens, UniProt P08684); assay: Vivid CYP450 screening kit, recombinant CYP 3A4 activity; format: biochemical; conditions: recombinant CYP3A4 BACULOSOMES, probe Vivid BOMR
# P-gp = P-gp (Homo sapiens, UniProt P08183); assay: P-gp mediated transport of rhodamine 123; format: cell-based; conditions: LS 180 cells, 4-h incubation
# [3] = EVL 0.5 mg/kg + curcumin 50 mg/kg
# [4] = EVL 0.5 mg/kg + curcumin 100 mg/kg
# Chain of CYP3A4 (P08684 whole entry): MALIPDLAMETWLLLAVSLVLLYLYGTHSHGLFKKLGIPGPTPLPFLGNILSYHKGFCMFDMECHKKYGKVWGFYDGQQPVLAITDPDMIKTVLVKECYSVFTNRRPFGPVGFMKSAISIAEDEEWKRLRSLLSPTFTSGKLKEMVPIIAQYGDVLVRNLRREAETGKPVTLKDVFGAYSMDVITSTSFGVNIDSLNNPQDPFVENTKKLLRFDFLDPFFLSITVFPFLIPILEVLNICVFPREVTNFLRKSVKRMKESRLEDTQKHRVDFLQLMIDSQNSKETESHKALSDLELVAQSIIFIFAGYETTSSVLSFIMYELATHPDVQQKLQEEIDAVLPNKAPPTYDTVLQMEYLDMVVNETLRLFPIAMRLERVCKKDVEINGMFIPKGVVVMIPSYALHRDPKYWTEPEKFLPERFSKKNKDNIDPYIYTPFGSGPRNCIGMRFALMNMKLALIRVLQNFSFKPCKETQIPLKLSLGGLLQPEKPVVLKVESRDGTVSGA
# Chain of P-gp (P08183 whole entry): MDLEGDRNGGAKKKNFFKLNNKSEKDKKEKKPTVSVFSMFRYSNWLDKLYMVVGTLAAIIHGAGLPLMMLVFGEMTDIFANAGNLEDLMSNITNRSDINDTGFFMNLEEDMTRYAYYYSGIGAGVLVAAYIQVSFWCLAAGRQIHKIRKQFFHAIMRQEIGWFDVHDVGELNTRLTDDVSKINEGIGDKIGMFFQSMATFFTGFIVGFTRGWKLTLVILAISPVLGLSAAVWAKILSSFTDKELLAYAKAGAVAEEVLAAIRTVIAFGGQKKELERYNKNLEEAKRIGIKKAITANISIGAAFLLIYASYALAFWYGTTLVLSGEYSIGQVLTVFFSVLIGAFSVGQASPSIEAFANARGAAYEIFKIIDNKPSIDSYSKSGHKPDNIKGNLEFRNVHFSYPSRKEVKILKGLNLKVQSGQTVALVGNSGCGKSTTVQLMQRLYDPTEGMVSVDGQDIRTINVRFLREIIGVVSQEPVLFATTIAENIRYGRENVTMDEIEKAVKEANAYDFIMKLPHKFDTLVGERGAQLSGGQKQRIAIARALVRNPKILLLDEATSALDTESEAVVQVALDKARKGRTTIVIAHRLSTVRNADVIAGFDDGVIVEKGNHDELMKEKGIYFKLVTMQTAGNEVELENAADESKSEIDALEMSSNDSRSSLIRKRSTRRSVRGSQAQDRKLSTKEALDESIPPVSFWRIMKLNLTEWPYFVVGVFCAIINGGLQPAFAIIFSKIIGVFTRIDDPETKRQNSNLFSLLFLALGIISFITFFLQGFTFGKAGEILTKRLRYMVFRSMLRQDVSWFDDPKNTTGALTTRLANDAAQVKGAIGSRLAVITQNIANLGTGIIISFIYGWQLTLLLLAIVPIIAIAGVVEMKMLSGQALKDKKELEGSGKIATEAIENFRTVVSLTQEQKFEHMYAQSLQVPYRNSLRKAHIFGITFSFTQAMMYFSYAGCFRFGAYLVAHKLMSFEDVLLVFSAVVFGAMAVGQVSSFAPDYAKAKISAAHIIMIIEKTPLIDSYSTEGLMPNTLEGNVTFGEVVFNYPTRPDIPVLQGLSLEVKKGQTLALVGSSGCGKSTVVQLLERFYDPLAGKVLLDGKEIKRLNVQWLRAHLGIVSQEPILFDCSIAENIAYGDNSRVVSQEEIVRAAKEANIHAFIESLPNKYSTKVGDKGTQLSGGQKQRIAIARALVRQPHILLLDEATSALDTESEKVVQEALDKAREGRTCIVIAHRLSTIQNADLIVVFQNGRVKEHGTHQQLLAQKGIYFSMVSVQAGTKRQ
structure (smiles),measurement,setting,value
"CO[C@H]1C[C@@H]2CC[C@@H](C)[C@@](O)(O2)C(=O)C(=O)N2CCCC[C@H]2C(=O)O[C@H]([C@H](C)C[C@@H]2CC[C@@H](OCCO)[C@H](OC)C2)CC(=O)[C@H](C)/C=C(\C)[C@@H](O)[C@@H](OC)C(=O)[C@H](C)C[C@H](C)/C=C/C=C/C=C/1C [EVL, Everolimus]",Change of AUC0-540 versus EVL alone,[1]; [3],−70.6%
same,Change of Cmax versus EVL alone,[1]; [3],−76.7%
same,Change of AUC0-540 versus EVL alone,[1]; [4],−71.5%
same,Change of Cmax versus EVL alone,[1]; [4],−76.7%
same,Change of MRT versus EVL alone,[1]; [4],35.3%
same,AUC(0-t),[1]; oral EVL 0.5 mg/kg + curcumin 50 mg/kg,8.03 ng·h/mL
same,AUC(0-t),[1]; oral EVL 0.5 mg/kg + curcumin 100 mg/kg,7.77 ng·h/mL
same,AUC(0-t),[1]; oral EVL 0.5 mg/kg alone,27.3 ng·h/mL
same,Half-life,[2],18 to 35 h
same,Oral bioavailability,[2],15–16%
same,Time to peak concentration,[2]; oral,0.5 to 4.0 h
O=C(/C=C/c1ccc(O)cc1)CC(=O)/C=C/c1ccc(O)cc1 [bis-demethoxycurcumin],"inhibition at 30 min, 0.5 µM",CYP3A4,10%
same,"inhibition at 30 min, 1 µM",CYP3A4,10%
"COc1cc(/C=C/C(=O)CC(=O)/C=C/c2ccc(O)c(OC)c2)ccc1O [curcumin, Diferuloylmethane]",Effect on the MRT of EVL by coadministered curcumin,[1]; curcumin 50 mg/kg oral with EVL 0.5 mg/kg,not affected
same,"inhibition at 30 min, 5 µM",CYP3A4,93%
same,"inhibition at 30 min, 10 µM",CYP3A4,90%
same,Decrease of the efflux function of P-gp (rhodamine 123 accumulation),P-gp; 25 μM,13.2%
same,Decrease of the efflux function of P-gp (rhodamine 123 accumulation),P-gp; 50 μM,16.7%
same,Decrease of the efflux function of P-gp (rhodamine 123 accumulation),P-gp; 100 μM,172.9%
COc1cc(/C=C/C(O)=C/C(=O)/C=C/c2ccc(O)cc2)ccc1O [demethoxycurcumin],"inhibition at 30 min, 5 µM",CYP3A4,21%
same,"inhibition at 30 min, 10 µM",CYP3A4,53%
